{
  "source": "paper PMC9923724",
  "about": "“Half sandwich-type osmium, ruthenium, iridium and rhodium complexes with bidentate glycosyl heterocyclic ligands induce cytostasis in platinum-resistant ovarian cancer cells and bacteriostasis in Gram-positive multiresistant bacteria” (Frontiers in Chemistry, 2023)",
  "data": [
    {"test_system": "A2780 ovarian cancer cells", "assay": "SRB assay (cytostasis, 48 h) on A2780 cells", "format": "cell-based", "details": "48 h treatment", "protocol": "First, we assessed a set of osmium complexes (similar to Ia [[Kacsir et al., 2022]) in Figure 1] and their sugar-derived ligands, in which the benzoyl protective groups on the carbohydrate moiety were replaced by aliphatic acyl groups of different chain length (straight chain C3-C7–CO). Osmium was selected as a central ion, since osmium complexes had the best biological activity in our previous studies ([Balázs et al., 2022]; [Kacsir et al., 2022]). These compounds were tested on A2780 ovarian cancer cells for toxicity and cytostasis. The therapy of ovarian cancer is centered around platinum compounds ([Brown et al., 2019]; [Sipos et al., 2021]), therefore, it was logical to use a cellular model of ovarian cancer for the initial testing of the compounds. Toxicity was assessed using the MTT assay that measures the activity of mitochondrial complex I. We chose 4 h long treatment as in an MTT assay this time point is suitable to detect rapid, direct toxicity. Cytostasis was assessed after 48 h of treatment using the SRB assay that assesses protein content that corresponds to cell count. The characteristics of the compounds are detailed in Table 2.\n3 × 10^3 A2780 cells, were plated to 96 well plates. Cells were treated with the compounds in the concentrations indicated for either 4 h for an MTT assay or for 48 h for an SRB assay. Data is represented as average ± SD, from three biological replicates; individual assays were performed in duplicates. Values were normalized for vehicle treated cells, absorbance for vehicle treated cells equals to 1. […] Except for the Os-6 complex, Two-way ANOVA test was performed and all values were compared with each other (Tukey’s post hoc test). […] Non-linear regression was performed on the data.\n3 × 10^3 A2780 cells, 2 × 10^3 ID8 cells and 4 × 10^3 primary fibroblasts were plated to 96 well plates. Cells were treated with the compounds in the concentrations indicated for either 4 h for an MTT assay or for 48 h for an SRB assay. Data is represented as average ± SD, from three biological replicates; individual assays were performed in duplicates. Values were normalized for vehicle treated cells, absorbance for vehicle treated cells equals to 1. Statistical significance was assessed using two-way ANOVA test comparing the free ligand and each complex as a complex-ligand pair. Before the test normality was assessed using the D’Agostino-Pearson test. The ID8 SRB Ir-7+L-7 dataset had lognormal distribution. […] All other datasets had normal distribution. For better visibility the p values are presented in an excel sheet at https://figshare.com/s/2c942a812caea8869a67. Non-linear regression was performed on the A2780 SRB and the ID8 SRB datasets.\nThe assay was performed similar to ([Kovács et al., 2019]). Cells were seeded in 96 well plates the day before the assay. Cells were treated with the compounds for 48 h. Cells were fixed with 10% trichloroacetic acid (TCA). Fixed cells were washed in distilled water 3 times followed by staining with SRB (0.4 m/V% dissolved in 1% acetic acid) for 10 min. Stained cells were washed in 1% acetic acid 5 times; acetic acid was removed and cells were left to dry. Protein-bound SRB was released by adding 100 µl 10 mM Tris base. Plates were measured in a plate photometer (Thermo Scientific Multiscan GO spectrophotometer, Waltham, MA, United States) at 540 nm. On each plate wells were designed to contain vehicle-treated cells. In calculations the readings for these wells was considered as 1 and all readings were expressed relative to these values.\nStatistical analysis was performed using 8.0.1 version of Graphpad Prism. Values were tested for normal distribution using the D’Agostino and Pearson normality test. When necessary, values were log normalized or were normalized using the Box-Cox normalization method ([Box and Cox, 1964]) as indicated in the figure captions. […]", "units": {"A2780 SRB Max. (maximal inhibition)": "%"}, "values": [
      {"compound": "CCCC(=O)OC[C@H]1O[C@@H](n2cc(-c3ccccn3)nn2)[C@H](OC(=O)CCC)[C@@H](OC(=O)CCC)[C@@H]1OC(=O)CCC", "note": "[L-2]", "A2780 SRB Max. (maximal inhibition)": 21.2},
      {"compound": "O=C(OC[C@H]1O[C@@H](n2cc(-c3ccc4ccccc4n3)nn2)[C@H](OC(=O)c2ccccc2)[C@@H](OC(=O)c2ccccc2)[C@@H]1OC(=O)c1ccccc1)c1ccccc1", "note": "[L-7, 1-(2’,3’,4’,6’-tetra-O-benzoyl-β-D-glucopyranosyl)-4-(quinolin-2-yl)-1,2,3,-triazole]", "A2780 SRB Max. (maximal inhibition)": 16.9},
      {"compound": "CCCCC(=O)OC[C@H]1O[C@@H](n2cc(-c3ccccn3)nn2)[C@H](OC(=O)CCCC)[C@@H](OC(=O)CCCC)[C@@H]1OC(=O)CCCC", "note": "[L-3]", "A2780 SRB Max. (maximal inhibition)": 32.0},
      {"compound": "CCCCCCC(=O)OC[C@H]1O[C@@H](n2cc(-c3ccccn3)nn2)[C@H](OC(=O)CCCCCC)[C@@H](OC(=O)CCCCCC)[C@@H]1OC(=O)CCCCCC", "note": "[L-5]", "A2780 SRB Max. (maximal inhibition)": 28.5},
      {"compound": "CCCCCC(=O)OC[C@H]1O[C@@H](n2cc(-c3ccccn3)nn2)[C@H](OC(=O)CCCCC)[C@@H](OC(=O)CCCCC)[C@@H]1OC(=O)CCCCC", "note": "[L-4]", "A2780 SRB Max. (maximal inhibition)": 26.9}
    ]}
  ]
}
